Data set [1] has as its system neuropathic rats. Kind of data set: Cold sensitivity (10° C. cold plate), paw withdrawal latencies in neuropathic rats. The note with it: neuropathic Wistar rats, p.o.; peak occurred at 1h. It counts as in vivo, rat. The text has this:
(§1) The wound was closed with skin clips.
(§2) Control animals received vehicle alone.

The next data set can be described thus: Rat microsomal stability. Type of data set: in vitro ADME. The note with it: for half-life at 1 μM: rat, rat microsomes. The text has this:
Rat and human microsomal stability data was obtained using well established protocols known to those skilled in the art.

Data set [2] relates to neuropathic rats. Kind of data set: Mechanical hyperalgesia, paw withdrawal thresholds in neuropathic rats (partial sciatic nerve ligation). Type of data set: in vivo, rat. The note with it: neuropathic Wistar rats, p.o.; peak occurred at 3h.
From the text: as §1, §2

SMILES strings stand for the structures. Where two headings read alike, the source gives them in different places.

`CC(C)c1cc(C(=O)N2CCOCC2)cc(C(C)C)c1O` [LT-01-25, (4-(hydroxy)-3,5-diisopropylphenyl)(morpholino)methanone]: in the data set with neuropathic rats [1], the “Peak reversal, cold (10° C. cold plate)” value turned out to be 93%. Besides, the Cl in “Rat microsomal stability” (Rat microsomes, 1 μM) amounted to 3.35 mL/min/kg. Also, the “Cl (values marked *)” value in “Rat microsomal stability” (Rat microsomes, 1 μM, second set marked *) is recorded as 1.07 mL/min/kg (Cl)*. Besides, the half-life at 1 μM in the data set “Rat microsomal stability” (read-out: t1/2) was found to be 741 min; in the data set “Rat microsomal stability” (second set marked *, read-out: t1/2 (values marked *)), 1160 min. For the same molecule, the “Peak reversal, mechanical (paw pressure)” value in the data set on neuropathic rats [2] came out at 90%.
